Here are results for one compound from PMC4757794 (2016).

The test system of assay [1] is CC mismatched DNA (melting temperature experiment) (DNA, mismatch bulge abasic) ATCGTCTCGGTATAA/TTATACCCAGACGAT
Briefly: UV melting at 260 nm. To be noted: compound equimolar to DNA.

Assay [2] deals with matched DNA (melting temperature experiment) (DNA, duplex) ATCGTCTCGGTATAA/TTATACCGAGACGAT
Briefly: UV melting at 260 nm. As to conditions: compound equimolar to DNA.

Consider `C1CCC(P(CP(C2CCCCC2)C2CCCCC2)C2CCCCC2)CC1.[Pt+2].[Pt+2].[c-]1ccccc1-c1cccc(-c2ccccn2)n1.[c-]1ccccc1-c1cccc(-c2ccccn2)n1`, for which the figures for the ΔTm in assay [1] and in assay [2] were 6.8 °C and 0.5 °C, respectively.

What is called ΔTm is the shift of the melting midpoint relative to a reference.
